# Assay results published in patent US8222247B2, “Modulators of glucocorticoid receptor, AP-1, and/or NF-kappabeta activity and use thereof” (Bristol-Myers Squibb Company, priority 2006, dated 2012).
# Like-named read-outs stand apart in the source and are kept apart here.
# Test system: AP-1 induced transcriptional activity
# Experiment: Cellular Transrepressional Assay (AP-1 luciferase reporter in A549 cell, PMA activated)
# Type: cell-based
# Conditions: pAP-1-Luc; for AP-1 Max % inh (Cellular Transrepression Assay) / Emax: maximum inhibition, PMA; for EC50: 10 ng/ml PMA, 7 hours, read-out: AP-1 EC50, nM (Cellular Transrepression Assay); for Emax: read-out: AP-1 Max % inh (Cellular Transrepression Assay)
# Protocol: Cellular Transrepressional Assay
# To measure the ability of test molecules to inhibit AP-1 induced transcriptional activity we utilized an A549 cell which was stably transfected with a plasmid containing 7×AP-1 DNA binding sites (pAP-1-Luc plasmid, Stratagene Co. La Jolla, Calif.) followed by the gene for luciferase. Cells were activated with 10 ng/ml of phorbol myristic acid (PMA) plus or minus test molecules for 7 hours. After 7 hours a luciferase reagent was added to measure luciferase enzymatic activity in the cell. After a 10 minute incubation of luciferase reagent with cells, luminescence was measured in a TopCount luminescence counter. Repression of AP-1 activity was calculated as the percentage decrease in the signal induced by PMA alone. Test molecules were analyzed in the concentration range from 0.1 nM to 40 μM. EC50s were determined by using standard curve fitting methods such as Excel fit (Microsoft Co.). An EC50 is the test molecule concentration at which there is a 50% repression of the maximal inhibition of transcription, i.e. a 50% reduction of AP-1 activity.
Compound,EC50 [nM],"EC50 (Homo sapiens, A549, 7 h) [nM]",AP-1 Max % inh (Cellular Transrepression Assay) [% inh],"Emax (Homo sapiens, A549, 7 h) [%]"
"CC(C)(C(=O)Nc1nncs1)C(c1cc(F)cc(F)c1)c1ccc(-c2ccc(C(=O)N3CCOCC3)cc2)s1 (stereo not shown) [Example 89, 3-(3,5-difluorophenyl)-2,2-dimethyl-3-(5-(4-(4-morpholinylcarbonyl)phenyl)-2-thienyl)-N-1,3,4-thiadiazol-2-ylpropanamide]",,2.41,,36.7
"CCN(C)C(=O)c1ccc(-c2ccc([C@@H](c3cccc(F)c3)[C@@H](C)C(=O)Nc3nncs3)s2)cc1 [Example 107, N-ethyl-4-(5-((1R,2R)-1-(3-fluorophenyl)-2-methyl-3-oxo-3-(1,3,4-thiadiazol-2-ylamino)propyl)-2-thienyl)-N-methylbenzamide]",,15.9,,52.5
"C[C@@H](C(=O)Nc1nncs1)[C@H](c1cccc(F)c1)c1ccc(-c2ccc(C(=O)N3CCOCC3)cc2)s1 [Example 109, (2R,3R)-3-(3-fluorophenyl)-2-methyl-3-(5-(4-(4-morpholinylcarbonyl)phenyl)-2-thienyl)-N-1,3,4-thiadiazol-2-ylpropanamide]",,8.39,,57.5
"C[C@@H](C(=O)Nc1nncs1)[C@H](c1cccc(F)c1)c1ccc(-c2ccc(C(=O)N(C)C)c(Cl)c2)s1 [Example 110, 2-Chloro-4-(5-((1R,2R)-1-(3-fluorophenyl)-2-methyl-3-oxo-3-(1,3,4-thiadiazol-2-ylamino)propyl)-2-thienyl)-N,N-dimethylbenzamide]",,24.6,,47
"C[C@@H](C(=O)Nc1nncs1)[C@H](c1cccc(F)c1)c1ccc(-c2ccc(C(=O)N(C)C)c(F)c2)s1 [Example 112, 2-fluoro-4-(5-((1R,2R)-1-(3-fluorophenyl)-2-methyl-3-oxo-3-(1,3,4-thiadiazol-2-ylamino)propyl)-2-thienyl)-N,N-dimethylbenzamide]",,18.5,,54
"C[C@@H](C(=O)Nc1nncs1)[C@H](c1cccc(F)c1)c1ccc(-c2ccc(C(=O)N3CCCC3)c(F)c2)s1 [Example 116, (2R,3R)-3-(3-fluorophenyl)-3-(5-(3-fluoro-4-(1-pyrrolidinylcarbonyl)phenyl)-2-thienyl)-2-methyl-N-1,3,4-thiadiazol-2-ylpropanamide]",,67.7,,40.8
"C[C@@H](C(=O)Nc1nncs1)[C@H](c1cccc(F)c1)c1ccc(-c2ccc(C(=O)N(C)C)cc2)s1 [Example 117, 4-(5-((1R,2R)-1-(3-fluorophenyl)-2-methyl-3-oxo-3-(1,3,4-thiadiazol-2-ylamino)propyl)-2-thienyl)-N,N-dimethylbenzamide]",,14.4,,56.5
"C[C@@H](C(=O)Nc1nncs1)[C@H](c1cccc(F)c1)c1ccc(-c2ccc(C(=O)N3CCC(F)(F)C3)cc2)s1 [Example 121, (2R,3R)-3-(5-(4-((3,3-difluoro-1-pyrrolidinyl)carbonyl)phenyl)-2-thienyl)-3-(3-fluorophenyl)-2-methyl-N-1,3,4-thiadiazol-2-ylpropanamide]",,66.8,,28.7

# Further lines, with some results ahead:
EC50 [nM],"EC50 (Homo sapiens, A549, 7 h) [nM]",Compound,AP-1 Max % inh (Cellular Transrepression Assay) [% inh],"Emax (Homo sapiens, A549, 7 h) [%]"
53.9,,"CN(C)C(=O)c1ccc(-c2ccc(C(c3ccccc3)C(C)(C)C(=O)Nc3nncs3)s2)cc1Cl (stereo not shown) [Example 86, 2-chloro-4-(5-(2,2-dimethyl-3-oxo-1-phenyl-3-(1,3,4-thiadiazol-2-ylamino)propyl)-2-thienyl)-N,N-dimethylbenzamide]",36.20,
,8.49,"CN(C)C(=O)c1ccc(-c2ccc(C(c3ccccc3)C(C)(C)C(=O)Nc3nncs3)s2)cc1 (stereo not shown) [Example 87, 4-(5-(2,2-dimethyl-3-oxo-1-phenyl-3-(1,3,4-thiadiazol-2-ylamino)propyl)-2-thienyl)-N,N-dimethylbenzamide]",,41.1
15.7,,"CCN(C)C(=O)c1ccc(-c2ccc(C(c3ccccc3)C(C)(C)C(=O)Nc3nncs3)s2)cc1 (stereo not shown) [Example 88, 4-(5-(2,2-dimethyl-3-oxo-1-phenyl-3-(1,3,4-thiadiazol-2-ylamino)propyl)-2-thienyl)-N-ethyl-N-methylbenzamide]",43.56,
,20.6,"CN(C)C(=O)c1ccc(-c2ccc(C(c3cc(F)cc(F)c3)C(C)(C)C(=O)Nc3nncs3)s2)cc1 (stereo not shown) [Example 90, 4-(5-(1-(3,5-difluorophenyl)-2,2-dimethyl-3-oxo-3-(1,3,4-thiadiazol-2-ylamino)propyl)-2-thienyl)-N,N-dimethylbenzamide]",,32.7
,71.1,"C[C@@H](C(=O)Nc1nncs1)[C@@H](c1cccc(F)c1)c1ccc(Br)s1 [Example 96, (2R,3S)-3-(5-bromo-2-thienyl)-3-(3-fluorophenyl)-2-methyl-N-1,3,4-thiadiazol-2-ylpropanamide]",,27.4
,21.2,"C[C@@H](C(=O)Nc1nncs1)[C@H](c1cccc(F)c1)c1ccc(-c2ccc(C(=O)N3CCOCC3)c(Cl)c2)s1 [Example 111, (2R,3R)-3-(5-(3-chloro-4-(4-morpholinylcarbonyl)phenyl)-2-thienyl)-3-(3-fluorophenyl)-2-methyl-N-1,3,4-thiadiazol-2-ylpropanamide]",,53.3
,17.9,"CC(C)Oc1ccc(-c2ccc([C@@H](c3cccc(F)c3)[C@@H](C)C(=O)Nc3nncs3)s2)cc1 [Example 113, (2R,3R)-3-(3-fluorophenyl)-3-(5-(4-isopropoxyphenyl)-2-thienyl)-2-methyl-N-1,3,4-thiadiazol-2-ylpropanamide]",,37.8
,45.5,"CC(C)Cc1ccc(-c2ccc([C@@H](c3cccc(F)c3)[C@@H](C)C(=O)Nc3nncs3)s2)cc1 [Example 114, (2R,3R)-3-(3-fluorophenyl)-3-(5-(4-isobutylphenyl)-2-thienyl)-2-methyl-N-1,3,4-thiadiazol-2-ylpropanamide]",,36.6
,31,"C[C@@H](C(=O)Nc1nncs1)[C@H](c1cccc(F)c1)c1ccc(-c2ccc(C(=O)N3CCCC3)c(Cl)c2)s1 [Example 115, (2R,3R)-3-(5-(3-chloro-4-(1-pyrrolidinylcarbonyl)phenyl)-2-thienyl)-3-(3-fluorophenyl)-2-methyl-N-1,3,4-thiadiazol-2-ylpropanamide]",,39.1
,61.6,"C[C@@H](C(=O)Nc1nncs1)[C@H](c1cccc(F)c1)c1ccc(-c2ccc(C(=O)N3CCCC3)cc2)s1 [Example 118, (2R,3R)-3-(3-fluorophenyl)-2-methyl-3-(5-(4-(1-pyrrolidinylcarbonyl)phenyl)-2-thienyl)-N-1,3,4-thiadiazol-2-ylpropanamide]",,55.3
,22.7,"CCN(C)C(=O)c1ccc(-c2ccc([C@@H](c3cccc(F)c3)[C@@H](C)C(=O)Nc3nncs3)s2)cc1Cl [Example 119, 2-chloro-N-ethyl-4-(5-((1R,2R)-1-(3-fluorophenyl)-2-methyl-3-oxo-3-(1,3,4-thiadiazol-2-ylamino)propyl)-2-thienyl)-N-methylbenzamide]",,47.6
,22.9,"CCN(C)C(=O)c1ccc(-c2ccc([C@@H](c3cccc(F)c3)[C@@H](C)C(=O)Nc3nncs3)s2)cc1F [Example 120, N-ethyl-2-fluoro-4-(5-((1R,2R)-1-(3-fluorophenyl)-2-methyl-3-oxo-3-(1,3,4-thiadiazol-2-ylamino)propyl)-2-thienyl)-N-methylbenzamide]",,42.9
